Entries after “also recorded” stand apart in the source; their conditions may differ.
Key:
MAGE-A3:AMPKα1 = target: T1, MAGE-A3:AMPKα1 (Homo sapiens, UniProt P43357); experiment: Co-IP of MAGE-A3 with AMPKα1 in cell lysate; type: binding; conditions: 100 µM, 24 h
T1 construct: expressed in transfected cells
Method: (§1) HEK293FT cells were plated in 6 cm^2 plates and transfected 24 h later with Effectene (QIAGEN) according to the manufacturer’s protocol. After 48 h, cells were washed and scraped in cold PBS, spun down, and resuspended in lysis buffer (50 mM Tris pH 7.4, 150 mM NaCl, 1 mM DTT, 0.1% (v/v) Triton X-100, 10 mM N-Ethylmaleimide, and 1X protease inhibitor cocktail (Sigma)). Cell lysates were incubated with appropriate antibodies overnight at 4 °C and then with protein A beads for 2 h at 4 °C. Beads were then washed with lysis buffer three times and eluted with 2X SDS sample buffer.
(§2) For western blotting, samples in SDS sample buffer were resolved on SDS-PAGE gels and then transferred to nitrocellulose membranes prior to blocking in TBST with 5% (w/v) milk powder or 3% (w/v) bovine serum albumin and probing with primary and secondary antibodies (GE Healthcare). Primary antibodies were: anti-Myc (Sigma, #C3956), anti-FLAG (Sigma, #F3165), anti-HUWE1 (Novus Biologicals, #NB 100-652), anti-PCF11 (Bethyl Laboratories, #A303-706A), anti-GAPDH (Cell Signaling Technology, #2118), anti-TRIM28 (Abcam, #ab22553), anti-AMPKα1 (Cell Signaling Technology, #2795), and anti-MMS19 (Proteintech, #16015-1-AP) and Tb-anti-GST (Invitrogen, #PV3551). Secondary antibodies were: Donkey Anti-Rabbit IgG (GE Healthcare, NA934V) and Sheep Anti-Mouse IgG (GE Healthcare, NA931V). […]

MAGE-F1:MMS19 = target: T2, MAGE-F1:MMS19 (Homo sapiens, UniProt Q9HAY2); experiment: Co-IP of MAGE-F1 with MMS19 in cell lysate; type: binding; conditions: 100 µM, 24 h
T2 construct: expressed in transfected cells
T2 sequence (Q9HAY2 1-307): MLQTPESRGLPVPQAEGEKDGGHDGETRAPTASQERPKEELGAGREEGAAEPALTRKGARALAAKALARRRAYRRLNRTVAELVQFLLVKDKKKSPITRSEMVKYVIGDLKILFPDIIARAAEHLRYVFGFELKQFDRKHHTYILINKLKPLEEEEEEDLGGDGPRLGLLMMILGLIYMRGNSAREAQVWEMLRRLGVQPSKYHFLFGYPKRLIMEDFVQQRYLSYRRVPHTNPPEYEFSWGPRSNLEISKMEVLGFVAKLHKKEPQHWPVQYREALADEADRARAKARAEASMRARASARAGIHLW
Method: as §1, §2

[1] = target: T3, MAGE-A11 binding to PCF11 (Homo sapiens, UniProt P43364); experiment: Pull-down (co-IP) of FLAG-MAGE-A11 with endogenous PCF11 in cell lysate; conditions: 100 µM, 24 h, FLAG-MAGE-A11 HEK293FT cell lysates
T3 construct: expressed in transfected cells
T3 sequence (P43364 1-429): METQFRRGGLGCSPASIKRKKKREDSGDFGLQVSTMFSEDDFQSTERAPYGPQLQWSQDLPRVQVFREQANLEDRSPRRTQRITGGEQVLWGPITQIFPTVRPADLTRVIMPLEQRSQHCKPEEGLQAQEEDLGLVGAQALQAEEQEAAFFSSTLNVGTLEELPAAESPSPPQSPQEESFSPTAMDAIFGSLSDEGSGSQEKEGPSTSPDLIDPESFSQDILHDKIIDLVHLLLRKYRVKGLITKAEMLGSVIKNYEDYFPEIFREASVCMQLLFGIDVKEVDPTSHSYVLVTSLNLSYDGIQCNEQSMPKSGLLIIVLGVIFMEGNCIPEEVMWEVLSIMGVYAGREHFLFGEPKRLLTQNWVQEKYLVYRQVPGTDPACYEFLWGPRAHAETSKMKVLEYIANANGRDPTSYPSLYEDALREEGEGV
Method: as §1, §2

T1 sequence (P43357 whole entry): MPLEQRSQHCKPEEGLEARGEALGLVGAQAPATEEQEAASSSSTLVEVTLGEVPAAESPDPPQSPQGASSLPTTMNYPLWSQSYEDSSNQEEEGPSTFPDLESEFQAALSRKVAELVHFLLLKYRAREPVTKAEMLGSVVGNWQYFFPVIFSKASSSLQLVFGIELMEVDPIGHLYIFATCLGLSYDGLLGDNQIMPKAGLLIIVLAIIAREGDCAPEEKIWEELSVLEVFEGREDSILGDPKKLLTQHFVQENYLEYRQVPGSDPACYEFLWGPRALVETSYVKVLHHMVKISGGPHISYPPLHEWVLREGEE

Row | SMILES | interaction of MAGE-A3 with AMPKα1 in cell lysate (MAGE-A3:AMPKα1; listed as SJ521054) | interaction of MAGE-F1 with MMS19 in cell lysate (MAGE-F1:MMS19; listed as SJ521054) | MAGE-A11 binding to PCF11 in cell lysate ([1]; listed as SJ521054) | interaction of MAGE-A3 with AMPKα1 in cell lysate (MAGE-A3:AMPKα1; listed as SJ1008066) | interaction of MAGE-F1 with MMS19 in cell lysate (MAGE-F1:MMS19; listed as SJ1008066) | MAGE-A11 binding to PCF11 in cell lysate ([1]; listed as SJ1008066)
1 | FC(F)(F)c1ccc2c(NCCCNCc3ccc4[nH]ccc4c3)ccnc2c1 [SJ000521054-02] | do not disrupt interaction; also recorded: did not disrupt interaction | do not disrupt interaction; also recorded: did not disrupt interaction | inhibited MAGE-A11 binding to PCF11 in cell lysates | – | – | –
2 | c1ccc2c(NCCCNCc3ccc4[nH]ccc4c3)ccnc2c1 [SJ001008066-01] | – | – | – | do not disrupt interaction; also recorded: did not disrupt interaction | do not disrupt interaction; also recorded: did not disrupt interaction | inhibited MAGE-A11 binding to PCF11 in cell lysates
